Data as given in patent US20220071970A1, “QUINUCLIDINE-3-ONE DERIVATIVES AND THEIR USE IN CANCER TREATMENT” (Aprea Therapeutics AB, priority 2018, published 2022).
Where two headings read alike, the source gives them in different places.

How the values were obtained:
[1] = Stability study in pH 4 buffer at 25° C.; format: physicochemical; settings: for % Parent remaining at 48 h: LCMS, normalized to internal standard; for half-life at 0.2 mg/mL: pH 4 acetate buffer
Method: Chemical stability at low pH was investigated for selected compounds. Compounds that are highly unstable may not be suitable as drug candidates, for example due to potential difficulties in achieving and maintaining a stable and therapeutically effective formulation. For instance, compounds intended for oral administration must be chemically stable at the low pH observed in the stomach in order for this to be an acceptable route.
A pH 4 buffer was prepared by mixing 4.1 mL of 0.2 M acetic acid (aq.) with 0.9 mL of a 0.2 M sodium acetate (aq.) and then diluting to 10 mL with distilled water. The pH was determined by pH meter to 4.04.
Benzylpiperidine-4-ol was used as internal standard. A 1 mg/mL stock solution was prepared by dissolving 3.5 mg benzylpiperidine-4-ol in 3.5 mL of water. 500 μL of the stock solution were added to pH 4 buffer (5 mL) and the mixture was shaken.
A 1 mg/mL solution in acetonitrile was prepared for each test compound. Two drops of water were added to ca. 1 mL of acetonitrile in order to completely dissolve Example 2.
To 400 μL of pH 4 buffer with internal standard were added 100 μL of 1 mg/mL test compound solution. The solutions were stored at 25° C. and analyzed by LCMS directly and at different time points up to 48 hours. The [M+H]^+ ion for parent compound (test compound) and the internal standard (m/z 192) were extracted and integrated. The area for the parent compound was normalized to the area of the internal standard for each time point.
The half-life was calculated based on 1st order kinetics (t %=ln2/k). The rate constant (k) was obtained by plotting In[normalized peak area] against time.
Results for half-life and percent parent compound remaining at 48 h for selected examples and a comparative example are shown in Table 5.

[2] = test system: SaOS-2 His273 mtp53 human osteosarcoma cell line; assay: In vitro efficacy study using the SaOS-2 His273 protocol (CellTiter-Glo viability, 72 h); format: cell-based; settings: read-out: SaOS-2 His273 IC50
Method: SaOS-2 His273 mtp53 is a human osteosarcoma cell line which has been genetically engineered at OnkPat CCK to express His273 mutated p53.
3000 cells/well (50 μl) were seeded into masked (black or white with clear bottom) 96-well cell culture plates using Iscove's Modified Dulbecco's Medium supplemented with 10% heat inactivated (56° C. for 60 min) fetal calf serum. The plates were then incubated for 4 hours, allowing the cells to attach. The test compounds were dissolved in DMSO or water to a concentration of 0.01 M and then further diluted to desired concentrations using the cell medium. 50 μl of freshly diluted test compound from fresh stock was added to the wells. The plates were then incubated for 72 hours.
For viability detection, CellTiter-Glo® Luminescent Cell Viability Assay (CTG) was used. CTG is a homogeneous “add-mix-measure” format method of determining the number of viable cells in culture based on quantitation of the ATP present, an indicator of metabolically active cells. The luminescence was measured using the PerkinElmer Victorx4 instrument.
The average of the signal values for the untreated cells was calculated for each plate. The % of growth suppression was calculated as:
100−((Signal sample/Signal untreated cells)×100).
The results of the SaOs-2 His273 analyses were expressed as IC50 values, i.e. concentration that suppresses growth of at least 50% of the cells. The IC50 values of various compounds according to the invention and of some comparative compounds are shown in Table 1, Table 2, Table 3 and Table 4.

[3] = SAOS-2, growth suppression, 72 hours incubation, CellTiter-Glo

Structure (SMILES)	IC50 ([2]; SAOS-2, 72 h)	also measured
O=C1C2CCN(CC2)C1Cn1cc(F)c(=O)[nH]c1=O (stereo not shown) [Comparative example 3, 5-fluoro-1-((3-oxoquinuclidin-2-yl)methyl)pyrimidine-2,4(H,3H)-dione, reference compound]		Half-life ([1]; 1st order kinetics): 15 h; % Parent remaining at 48 h [1]: 18%
CS(=O)(=O)N(CC(=O)O)CC1C(=O)C2CCN1CC2 (racemic) [Example 12, N-(methylsulfonyl)-N-((3-oxoquinuclidin-2-yl)-methyl)qlycine]	6 µM	
O=C1C2CCN(CC2)C1CNC(=O)C(Cl)(Cl)Cl (racemic) [Example 2, 2,2,2-trichloro-N-((3-oxoquinuclidin-2-yl)methyl)acetamide]	6.9 µM	
Cc1cn(CC2C(=O)C3CCN2CC3)c(=O)n(CC2C(=O)C3CCN2CC3)c1=O (stereo not shown) [Example 26, 5-methyl-1,3-bis((3-oxoquinuclidin-2-yl)methyl)-pyrimidine-2,4(1H,3H)-dione]		% Parent remaining at 48 h [1]: 73%; half-life at 0.2 mg/mL ([1]; 1st order kinetics): 70 h; IC50 [2, 3]: 4 µM
O=C1C2CCN(CC2)C1Cn1cccn1 (racemic) [compound 4, 2-((1H-pyrazol-1-yl)methyl)quinuclidin-3-one, reference compound]	> 40 µM	
O=C1C2CCN(CC2)C1Cn1ccc(=O)[nH]c1=O (racemic) [Example 23, 1-((3-oxoquinuclidin-2-yl)methyl)pyrimidine-2,4(1H,3H)-dione]		% Parent remaining at 48 h [1]: 59%; half-life at 0.2 mg/mL ([1]; 1st order kinetics): 67 h; IC50 [2, 3]: 3.2 µM
CS(=O)(=O)NCC1C(=O)C2CCN1CC2 (racemic) [Example 9, N-((3-oxoquinuclidin-2-yl)methyl)methanesulfon-amide]	8 µM	
CCN(CC1C(=O)C2CCN1CC2)C(=O)C(Cl)(Cl)Cl (racemic) [Example 1, 2,2,2-trichloro-N-ethyl-N-((3-oxoquinuclidin-2-yl)methyl)acetamide]	3.2 µM	
CNC(=O)c1ncn(CC2C(=O)C3CCN2CC3)n1 (racemic) [Example 27, N-methyl-1-((3-oxoquinuclidin-2-yl)methyl)-1H-1,2,4-triazole-3-carboxamide]	5 µM	
CS(=O)(=O)N(CC1C(=O)C2CCN1CC2)c1ccccc1 (racemic) [Example 22, N-((3-oxoquinuclidin-2-yl)methyl)-N-phenyl-methanesulfonamide]	1.6 µM	
O=C1C2CCN(CC2)C1CNS(=O)(=O)C(F)(F)F (racemic) [Example 16, 1,1,1-trifluoro-N-((3-oxoquinuclidin-2-yl)methyl)methanesulfonamide]	2.9 µM	
CC(C)S(=O)(=O)NCC1C(=O)C2CCN1CC2 (racemic) [Example 18, N-((3-oxoquinuclidin-2-yl)methyl)propane-2-sulfonamide]	11 µM	
CC1(S(=O)(=O)NCC2C(=O)C3CCN2CC3)CC1 (racemic) [Example 20, 1-methyl-N-((3-oxoquinuclidin-2-yl)methyl)cyclo-propane-1-sulfonamide]	7.4 µM	
N#Cc1ncn(CC2C(=O)C3CCN2CC3)n1 (racemic) [Example 31, 1-((3-oxoquinuclidin-2-yl)methyl)-1H-1,2,4-triazole-3-carbonitrile]	2.4 µM	
Cc1cn(CC2C(=O)C3CCN2CC3)c(=O)[nH]c1=O (racemic) [Example 24, 5-methyl-1-((3-oxoquinuclidin-2-yl)methyl)pyrimidine-2,4(1H,3H)-dione]		% Parent remaining at 48 h [1]: >95%; half-life at 0.2 mg/mL ([1]; 1st order kinetics): > 630 h; IC50 [2, 3]: 6.5 µM
CS(=O)(=O)N(CC1C(=O)C2CCN1CC2)C1CC1 (racemic) [Example 21, N-cyclopropyl-N-((3-oxoquinuclidin-2-yl)methyl)-methanesulfonamide]	1.8 µM	
CS(=O)(=O)N(CC1C(=O)C2CCN1CC2)CC1C(=O)C2CCN1CC2 (stereo not shown) [Example 17, N,N-bis((3-oxoquinuclidin-2-yl)methyl)methanesulfonamide]	2.9 µM	
O=C1C2CCN(CC2)C1Cn1cnc(Cl)n1 (racemic) [Example 28, 2-((3-chloro-1H-1,2,4-triazol-1-yl)methyl)quinuclidin-3-one]	3.1 µM	

Structure (SMILES)	IC50 ([2]; SAOS-2, 72 h)	also measured
CC(=O)NCC1C(=O)C2CCN1CC2 (racemic) [compound 1, N-((3-oxoquinuclidin-2-yl)methyl)acetamide, reference compound]	> 40 µM	
O=C(NCC1C(=O)C2CCN1CC2)c1cccnc1 (racemic) [compound 2, N-((3-oxoquinuclidin-2-yl)methyl)nicotinamide, reference compound]	> 40 µM	
CN(C)C(=O)c1ncn(CC2C(=O)C3CCN2CC3)n1 (single isomer, unassigned) [Example 29, N,N-dimethyl-1-((3-oxoquinuclidin-2-yl)methyl)-1H-1,2,4-triazole-3-carboxamide]	8.8 µM	
O=C1C2CCN(CC2)C1CNS(=O)(=O)c1ccc(F)cc1 (racemic) [Example 7, 4-fluoro-N-((3-oxoquinuclidin-2-yl)methyl)benzenesulfonamide]	7.2 µM	
CCN(CC1C(=O)C2CCN1CC2)S(=O)(=O)C(F)(F)F (racemic) [Example 15, N-ethyl-1,1,1-trifluoro-N-((3-oxoquinuclidin-2-yl)-methyl)methanesulfonamide]	3.5 µM	
CCN(CC1C(=O)C2CCN1CC2)S(C)(=O)=O (racemic) [Example 8, N-ethyl-N-((3-oxoquinuclidin-2-yl)methyl)methane-sulfonamide]	6 µM	
O=C1C2CCN(CC2)C1CNS(=O)(=O)C1CC1 (racemic) [Example 19, N-((3-oxoquinuclidin-2-yl)methyl)cyclopropane-sulfonamide]	12 µM	
O=C1C2CCN(CC2)C1Cn1cncn1 (racemic) [Example 30, 2-((1H-1,2,4-triazol-1-yl)methyl)quinuclidin-3-one]	26 µM	
CS(=O)(=O)N(CC(N)=O)CC1C(=O)C2CCN1CC2 (racemic) [Example 11, 2-(N-((3-oxoquinuclidin-2-yl)methyl)methylsulfon-amido)acetamide]	4.1 µM	
NC(=O)c1ncn(CC2C(=O)C3CCN2CC3)n1 (racemic) [Example 32, 1-((3-oxoquinuclidin-2-yl)methyl)-1H-1,2,4-triazole-3-carboxamide]	10 µM	
O=C1C2CCN(CC2)C1CNS(=O)(=O)c1cccnc1 (racemic) [Example 6, N-((3-oxoquinuclidin-2-yl)methyl)pyridine-3-sulfonamide]	7.2 µM	
CCN(CC1C(=O)C2CCN1CC2)C(=O)C(F)(F)F (racemic) [Example 3, N-ethyl-2,2,2-trifluoro-N-((3-oxoquinuclidin-2-yl)methyl)acetamide]	4.2 µM	
O=C1C2CCN(CC2)C1Cc1cnn[nH]1 (racemic) [Comparative example 5, 2-((1H-1,2,3-triazol-5-yl)methyl)quinuclidin-3-one, reference compound]	> 40 µM	
O=C(NCC1C(=O)C2CCN1CC2)C(F)F (racemic) [Example 5, 2,2-difluoro-N-((3-oxoquinuclidin-2-yl)methyl)acetamide]	13 µM	
O=C1C2CCN(CC2)C1CNS(=O)(=O)c1ccccn1 (racemic) [Example 14, N-((3-oxoquinuclidin-2-yl)methyl)pyridine-2-sulfonamide]	6 µM	
O=C1C2CCN(CC2)C1CNS(=O)(=O)c1ccncc1 (racemic) [Example 13, N-((3-oxoquinuclidin-2-yl)methyl)pyridine-4-sulfon-amide]	6.3 µM	
Cc1cn(CC2C(=O)C3CCN2CC3)c(=O)n(C(=O)OC(C)(C)C)c1=O (racemic) [Example 25, tert-butyl 5-methyl-2,6-dioxo-3-((3-oxoquinuclidin-2-yl)methyl)-3,6-dihydropyrimidine-1(2H)-carboxylate]	5.3 µM	
O=C1C2CCN(CC2)C1CNS(=O)(=O)c1ccccc1 (racemic) [Example 10, N-((3-oxoquinuclidin-2-yl)methyl)benzenesulfon-amide]	7.1 µM	
